This is an account of results in patent EP0147146A2, “Enhancement of transdermal drug delivery” (AMERICAN HOME PRODUCTS CORPORATION, priority 1983, dated 1985).

This data set can be described thus: in-vitro percutaneous transfer test with nude mouse skin in a diffusion cell. The data set is classed as in vitro ADME. On the procedure:
The test formulation was first impregnated into 1-inch diameter circles of a thin non-woven rayon fabric usually in amounts representing about 20 mg or more per cm^2 of skin. The impregnated fabric was applied to the outside or epidermal side of the skin while the inside or tissue side of the skin was exposed to an aerated and stirred volume of Ringer's injection fluid maintained at about 37° C. Samples were taken at intervals from the stirred solution and assayed for drug content. The calculated total amount of percutaneously transferred drug is expressed as mg drug per cm^2 of exposed skin.
Two circles of non-woven fabric were impregnated with each formulation (designated A1, A2 and B1, B2 respectively) and tested for percutaneous drug transfer across nude mouse skin.
Two circles of nonwoven fabric were impregnated with each formulation, so as to contain 2-3 mg of conjugated estrogens. These were applied to nude mouse skins (6 em^2 exposed surface) for transdermal penetration tests. The average of duplicate tests is given below, in units of µg of transferred estrogen per cm^2 of exposed skin surface.

SMILES strings stand for the structures. Counter-ions that a name gives are not always drawn.

Take `C[C@]12CC[C@@H]3c4ccc(OS(=O)(=O)O)cc4CC[C@H]3[C@@H]1CC[C@@H]2O` [17-B -estradiol-3-sodium sulfate]: the “flux rates of formulations containing menthol” value is given as “significantly higher flux rates”.

`C[C@]12CC[C@@H]3c4ccc(O)cc4CC[C@H]3[C@@H]1CC[C@@H]2O` [17-β -estradiol]: the “percutaneous transfer with and without menthol” value (lipophilic vehicles, nude mouse skin) is on record as “no significant differences”.

Consider `CCc1cccc2c3c([nH]c12)C(CC)(CC(=O)O)OCC3` (stereo not drawn) [etodolac, 1.8-diethyl-1,3,4,9-tetrahydropyrano[3,4-b] indole-1-acetic acid], for which the “increase in percutaneous transfer in the presence of menthol” value (with vs without 5% menthol in a glycerol/propylene glycol vehicle, nude mouse skin) is “about a three fold increase”.
